# Reference: patent US20090275539A1, “Nuclear Transcription Factors Regulators” (CTG PHARMA S.R.L., priority 2004, published 2009)
# How the values were obtained:
# [1] = test system: IL-8; assay: Expression of NF-kB regulated cytokine IL-8 in HeLa cells (ELISA); type: cell-based; conditions: for IL-8 concentration in cell supernatant: 120′; for Inhibition of the production of IL-8: after 120 minutes
# Description: (§1) The cells were stimulated with 100 μmol of compound described in example 6 with TNF (200 E/ml) or with PMA (50 ng/ml) and the concentration of IL-6 or IL-8 was measured in the cell supernatant at various interval using ELISA (British Biotechnology Products Ltd.).
# [2] = test system: heme oxygenase-1 (OH-1); assay: Zymosan-induced OH-1 protein expression in Raw 264.7 macrophages (western blot); type: cell-based, murine; conditions: for OH-1 protein expression, band intensity: zymosan-stimulated Raw 264.7, 18 hrs
# Description: (§2) For the screening approach it was decided to test the compounds object of the present invention and fulfilling the structural general criteria previously described for heme oxygenase-1 (OH-1) and inducible nitric oxide synthase (iNOS). The enzyme tests were performed as described by Vicente A M et al. (Br. J. Pharmacol. 2001, 133, 920-6). The formation of both these two enzymes was associated with the activation of transcription factors, and NF-kB particularly.
# (§3) In brief, Raw 264.7 murine macrophage cell line were maintained in a proper culture medium supplemented with 10% fetal bovine serum, 2 mM L-glutamine and penicillin/streptomycin. Suspensions of zymosan A from Saccharomyces cerevisiae in saline were used. After incubation with zymosan and/or test compounds for 18 hrs, cells supernatants were collected to measure protein expression, by western blot analysis. After incubation, macrophages were lysed in 100 microliters of buffer (1% Triton X-100, 1% deoxicholic acid, 20 mM NaCl and 25 mM Tris, pH 7.4) and then centrifuged at 4° C. for 5 min at 10,000×g. The protein content was determined by the Bradford method using bovine serum albumin as standard. Cell lysate (40 micrograms of protein) was mixed with Laemmli sample buffer under reducing conditions. […] Membranes were incubated with specific antibodies: polyclonal antibody against iNOS (1/1000, Cayman Chemical) and anti-OH-1 monoclonal antibody (1/2000, Stressgen). Blots were washed and incubated with peroxidase-conjugated goat IgG (1/20,000). The immunoreactive bands were visualized by an enhanced chemiluminescence system and band intensity quantitated using computer-assisted densitometry.
# [3] = test system: NF-kB; assay: NF-kB-CAT reporter gene assay (CAT activity); type: cell-based; conditions: test compound 100 μm; for NF-kB activity: % of CAT synthesis, TNF-stimulated: human TNF alpha 100 ng/ml
# Description: The NF-kB-CAT reporter gene cell line (Lenardo M J et al., Cell 58, 227-9, 1989) and. L29/Ji6 cells (Fratelli M et al, Antioxidants & Redox Signalling 5, 229-235, 2003) were prepared as previously described. Human TNF alpha (100 ng/ml) was used. The chloramphenicol-acetyltransferase (CAT) activity was measured by adding 40 microliters of Tris-HCl buffer (250 mM, ph 7.5) and D-threo-[dichloroacetyl]1,2 ^14C chloramphenicol (10 microliters, 8.3×10^−2 mCi/sample) The reaction was started by the addition of n-butyryl coenzyme A. After 2 h at 37° C., the reaction was stopped by extraction with hexane/xylene (2:1). The upper organic phase containing the reaction product was then recovered, and radioactivity was counted on a beta-counter. The activity on NF-kB was expressed as […].
# [4] = test system: inducible nitric oxide synthase (iNOS); assay: Zymosan-induced iNOS protein expression in Raw 264.7 macrophages (western blot); type: cell-based, murine; conditions: for INOS protein expression, band intensity: zymosan-stimulated Raw 264.7, 18 hrs
# Description: as §2, §3
# [5] = test system: IL-6; assay: Expression of NF-kB regulated cytokine IL-6 in HeLa cells (ELISA); type: cell-based; conditions: for Inhibition of the production of IL-6: after 120 minutes
# Description: as §1
# [6] = zymosan-stimulated Raw 264.7, summary of table I
structure (smiles),measurement,setting,value
"CC(=O)Sc1ccccc1C(=O)Oc1ccc(CO[N+](=O)[O-])cc1 [ATANPE, acetyl thiosalicylic acid 4-(nitroxymethyl)phenyl ester]",IL-8 concentration in cell supernatant,[1]; PMA (50 ng/ml) + 100 μmol compound,12 pg/mL
same,IL-8 concentration in cell supernatant,[1]; TNF (200 E/ml) + 100 μmol compound,6 pg/mL
same,Inhibition of the production of IL-8,[1]; first of two values printed with '(PMA stimulation)',90%
same,Inhibition of the production of IL-8,[1]; second of two values printed with '(PMA stimulation)',97%
same,"OH-1 protein expression, band intensity",[2]; concentration 10 μmol,293 percentage with respect to zymosan
same,Effect on OH-1 production (in words),[2]; [6],stimulate OH-1 production
same,"NF-kB activity: % of CAT synthesis, Basal",[3],31%
same,"NF-kB activity: % of CAT synthesis, TNF-stimulated",[3],26%
same,"INOS protein expression, band intensity",[4]; concentration 10 μmol,48 percentage with respect to zymosan
same,Effect on iNOS formation (in words),[4]; [6],inhibit iNOS formation
same,IL-6 concentration in cell supernatant,"[5]; PMA (50 ng/ml) + 100 μmol compound, 15′",920 pg/mL
same,IL-6 concentration in cell supernatant,"[5]; PMA (50 ng/ml) + 100 μmol compound, 120′",3138 pg/mL
same,IL-6 concentration in cell supernatant,"[5]; TNF (200 E/ml) + 100 μmol compound, 15′",945 pg/mL
same,IL-6 concentration in cell supernatant,"[5]; TNF (200 E/ml) + 100 μmol compound, 120′",1738 pg/mL
same,Inhibition of the production of IL-6,[5]; first of two values printed with '(TNF stimulation)',87%
same,Inhibition of the production of IL-6,[5]; second of two values printed with '(TNF stimulation)',74%
"CC(=O)Oc1ccccc1C(=O)O [Aspirin, reference compound]","NF-kB activity: % of CAT synthesis, Basal",[3],100%
same,"NF-kB activity: % of CAT synthesis, TNF-stimulated",[3],92%
"C[C@@H]1C[C@H]2[C@@H]3CCC4=CC(=O)C=C[C@]4(C)[C@@]3(F)[C@@H](O)C[C@]2(C)[C@@]1(O)C(=O)CO [Dexamethasone, dexamethasone]","OH-1 protein expression, band intensity",[2]; concentration 1 μmol,20 percentage with respect to zymosan
same,"INOS protein expression, band intensity",[4]; concentration 1 μmol,85 percentage with respect to zymosan
"COc1ccc2c(c1)c(CC(=O)O)c(C)n2C(=O)c1ccc(Cl)cc1 [Indomethacin, indomethacin]","OH-1 protein expression, band intensity",[2]; concentration 1 μmol,65 percentage with respect to zymosan
same,"INOS protein expression, band intensity",[4]; concentration 1 μmol,78 percentage with respect to zymosan
CC(=O)N[C@@H](CS)C(=O)O [N-acetylcysteine],"OH-1 protein expression, band intensity",[2]; concentration 100 μmol,44 percentage with respect to zymosan
same,"INOS protein expression, band intensity",[4]; concentration 100 μmol,80 percentage with respect to zymosan
CS(=O)(=O)Nc1ccc([N+](=O)[O-])cc1OC1CCCCC1 [NS398],"OH-1 protein expression, band intensity",[2]; concentration 10 μmol,72 percentage with respect to zymosan
same,"INOS protein expression, band intensity",[4]; concentration 10 μmol,120 percentage with respect to zymosan
"CC(c1cc2ccccc2s1)N(O)C(N)=O (stereo not shown) [Zileuton, zileuton]","OH-1 protein expression, band intensity",[2]; concentration 10 μmol,125 percentage with respect to zymosan
same,"INOS protein expression, band intensity",[4]; concentration 10 μmol,112 percentage with respect to zymosan
